Measurements reported in patent US9593305B2, “Differentiation of pluripotent stem cells” (Janssen Biotech, Inc., priority 2008, dated 2017).

Test system: H1 human embryonic stem cells
Test: Step-wise differentiation, RT-PCR of differentiation markers (Example 17, Table 15)
Type: cell-based
Protocol: Stock cultures of human embryonic stem cells (H1 human embryonic stem cell line) were maintained in an undifferentiated, pluripotent state on reduced growth factor […]™ (BD Biosciences; Cat #356231)-coated dishes in MEF conditioned medium supplemented with 8 ng/ml bFGF (PeproTech Inc.; Cat #100-18B) with passage on average every four days. Passage was performed by exposing cell cultures to a solution of 1 mg/ml dispase (Invitrogen; Cat #17105-041) for 5 to 7 minutes at 37° C. followed by rinsing the monolayer with MEF conditioned culture medium and gentle scraping to recover cell clusters. Clusters were centrifuged at low speed to collect a cell pellet and remove residual dispase. Cell clusters were split at a 1:3 or 1:4 ratio for routine maintenance culture or a 1:1 ratio for immediate assay. All human ES cell lines were maintained at passage numbers less than 50 and routinely evaluated for normal karyotype and absence of mycoplasma.
Cell clusters were evenly resuspended in MEF conditioned medium supplemented with 8 ng/ml bFGF and plated onto reduced growth factor […]™-coated 24-well, black wall culture plates (Arctic White; Cat #AWLS-303012) in volumes of 0.5 ml/well. Daily feeding was conducted by aspirating spent culture medium from each well and replacing with an equal volume of fresh medium. Plates were maintained at 37° C., 5% CO2 throughout assay.
The assay was initiated by aspirating the culture medium from each well and adding back an aliquot (0.5 ml) of test medium. Test conditions for the first step of differentiation were conducted over a three-day period, feeding daily by aspirating and replacing the medium from each well with fresh test medium. On the first day of assay, 100 ng/ml activin A (PeproTech; Cat #120-14) or 100 ng/ml GDF-8 (R&D Systems, Cat #788-G8) was added to respective assay wells where each growth factor was diluted into RPMI-1640 medium (Invitrogen; Cat #: 22400) with 2% Albumin Bovine Fraction V, Fatty Acid Free (FAF BSA) (MP Biomedicals, Inc; Cat #152401). In some samples, 20 ng/ml Wnt3a (R&D Systems; Cat #1324-WN/CF) was also included. On the second day of assay, 100 ng/mlactivin A or 100 ng/ml GDF-8 was diluted into RPMI-1640 medium supplemented with 2% FAF BSA, omitting Wnt3a from all samples. In some test samples using GDF-8, Wnt3a was replaced with a given concentration of small molecule compound, added only on the first day of definitive endoderm differentiation. […] At the conclusion of the first step of differentiation, cells from some wells were harvested for flow cytometry analysis to evaluate levels of CXCR4, a marker of definitive endoderm formation. Additional wells were harvested for RT-PCR analysis to measure other markers of differentiation.
At the conclusion of the first step of definitive endoderm differentiation, replicate sets of parallel wells from each treatment group were subjected to further step-wise differentiation. It is important to note that after the first differentiation step, all wells undergoing subsequent culture and differentiation received the same treatment. The protocol for this continuing differentiation is described below.
Step 2 of the differentiation protocol was carried out over two days. Cells were fed daily by aspirating the medium from each well and replacing with a fresh aliquot (0.5 ml) of DMEM:F12 medium (Invitrogen; Cat #11330-032) containing 2% FAF BSA, 50 ng/ml FGF7 (PeproTech; Cat #100-19), and 250 nM cyclopamine-KAAD (Calbiochem; Cat #239804).
Step 3 of the differentiation protocol was carried out over four days. […]

[1] = Step 5, cells harvested at end of step, treatment given during step one

Activin A: recombinant human activin A (PeproTech), TGF-beta family member
RT-PCR CT Values AFP (Step 1): 32.8
RT-PCR CT Values CD9 (Step 1): 25.2
RT-PCR CT Values CD99 (Step 1): 24.0
RT-PCR CT Values CDH (Step 1): 21.8
RT-PCR CT Values CDH1 (Step 1): 26.1
RT-PCR CT Values CDX2 (Step 1): 36.0
RT-PCR CT Values CER1 (Step 1): 18.3
RT-PCR CT Values CXCR4 (Step 1): 20.4
RT-PCR CT Values FGF4 (Step 1): 34.0
RT-PCR CT Values FGF17 (Step 1): 20.7
RT-PCR CT Values FOXA2 (Step 1): 25.1
RT-PCR CT Values GAPDH (Step 1): 19.4
RT-PCR CT Values GATA4 (Step 1): 25.0
RT-PCR CT Values GATA6 (Step 1): 22.9
RT-PCR CT Values GSC (Step 1): 22.4
RT-PCR CT Values HLXB9 (Step 1): 24.8
RT-PCR CT Values KIT (Step 1): 22.7
RT-PCR CT Values MIXL1 (Step 1): 28.9
RT-PCR CT Values NANOG (Step 1): 24.1
RT-PCR CT Values OTX2 (Step 1): 22.5
RT-PCR CT Values POU5F1 (Step 1): 32.2
RT-PCR CT Values SOX7 (Step 1): 32.3
RT-PCR CT Values SOX17 (Step 1): 21.6
RT-PCR CT Values T (Step 1): 36.1
RT-PCR CT Values ALB (Step 3): 26.9
RT-PCR CT Values AMY2A (Step 3): 30.6
RT-PCR CT Values ARX (Step 3): 32.0
RT-PCR CT Values CDX2 (Step 3): 22.9
RT-PCR CT Values GAPDH (Step 3): 18.5
RT-PCR CT Values GCG (Step 3): 34.1
RT-PCR CT Values HNF4A (Step 3): 22.4
RT-PCR CT Values INS (Step 3): 34.8
RT-PCR CT Values ISL1 (Step 3): 29.3
RT-PCR CT Values MAFA (Step 3): 36.4
RT-PCR CT Values MAFB (Step 3): 27.4
RT-PCR CT Values NEUROD1 (Step 3): 30.1
RT-PCR CT Values NEUROG3 (Step 3): 28.0
RT-PCR CT Values NKX2-2 (Step 3): 29.3
RT-PCR CT Values NKX2-5 (Step 3): 34.6
RT-PCR CT Values NKX6-1 (Step 3): 32.2
RT-PCR CT Values PAX4 (Step 3): 31.4
RT-PCR CT Values PAX6 (Step 3): 40.0
RT-PCR CT Values PDX1 (Step 3): 23.3
RT-PCR CT Values PECAM (Step 3): 31.0
RT-PCR CT Values POU3F4 (Step 3): 30.5
RT-PCR CT Values PTF1A (Step 3): 34.6
RT-PCR CT Values SST (Step 3): 33.2
RT-PCR CT Values ZIC1 (Step 3): 34.8
RT-PCR CT Values ALB (Step 4): 22.4
RT-PCR CT Values AMY2A (Step 4): 28.6
RT-PCR CT Values ARX (Step 4): 23.9
RT-PCR CT Values CDX2 (Step 4): 23.7
RT-PCR CT Values GAPDH (Step 4): 19.0
RT-PCR CT Values GCG (Step 4): 22.8
RT-PCR CT Values HNF4A (Step 4): 22.1
RT-PCR CT Values INS (Step 4): 23.6
RT-PCR CT Values ISL1 (Step 4): 24.1
RT-PCR CT Values MAFA (Step 4): 30.6
RT-PCR CT Values MAFB (Step 4): 23.5
RT-PCR CT Values NEUROD1 (Step 4): 23.7
RT-PCR CT Values NEUROG3 (Step 4): 23.3
RT-PCR CT Values NKX2-2 (Step 4): 24.0
RT-PCR CT Values NKX2-5 (Step 4): 31.9
RT-PCR CT Values NKX6-1 (Step 4): 27.4
RT-PCR CT Values PAX4 (Step 4): 25.7
RT-PCR CT Values PAX6 (Step 4): 27.1
RT-PCR CT Values PDX1 (Step 4): 23.7
RT-PCR CT Values PECAM (Step 4): 29.8
RT-PCR CT Values POU3F4 (Step 4): 26.5
RT-PCR CT Values PTF1A (Step 4): 29.6
RT-PCR CT Values SST (Step 4): 24.3
RT-PCR CT Values ZIC1 (Step 4): 32.5
RT-PCR CT Values ALB (Step 5): 20.2
RT-PCR CT Values AMY2A (Step 5): 27.6
RT-PCR CT Values ARX (Step 5): 22.0
RT-PCR CT Values CDX2 (Step 5): 23.4
RT-PCR CT Values GAPDH (Step 5): 18.3
RT-PCR CT Values GCG (Step 5): 14.1
RT-PCR CT Values HNF4A (Step 5): 21.3
RT-PCR CT Values INS (Step 5): 14.9
RT-PCR CT Values ISL1 (Step 5): 22.4
RT-PCR CT Values MAFA (Step 5): 31.8
RT-PCR CT Values MAFB (Step 5): 22.2
RT-PCR CT Values NEUROD1 (Step 5): 22.8
RT-PCR CT Values NEUROG3 (Step 5): 28.1
RT-PCR CT Values NKX2-2 [1]: 23.7 CT
RT-PCR CT Values NKX2-5 [1]: 34.1 CT
RT-PCR CT Values NKX6-1 [1]: 25.5 CT
RT-PCR CT Values PAX4 [1]: 27.3 CT
RT-PCR CT Values PAX6 [1]: 24.0 CT
RT-PCR CT Values PDX1 [1]: 23.2 CT
RT-PCR CT Values PECAM [1]: 30.1 CT
RT-PCR CT Values POU3F4 [1]: 28.8 CT
RT-PCR CT Values PTF1A [1]: 27.3 CT
RT-PCR CT Values SST [1]: 19.6 CT
RT-PCR CT Values ZIC1 [1]: 34.4 CT
